Reference: patent publication US7273694B2, “Method and apparatus for reducing pathogens in a biological sample” (Safety Art, LLC, priority 2001, dated 2007)
Read-outs that look alike come from different tables or passages of the source.

Legend:
[1] = tested on: Campylobacter fetus; experiment: Antibiotic sensitivity of bacterial isolate; assay type: cell-based
[2] = tested on: Brucella abortus Strain 19; assay type: cell-based; details: Strain 19 [vaccine strain]
[3] = tested on: fresh semen of domestic bulls (Bos taurus)
[4] = tested on: fresh semen of gaur (Bos gaur) bulls
[5] = tested on: cryopreserved bovine (Bos gaurus) sperm

Row | Compound | sensitivity of C. fetus to antibiotic [1] | sensitivity of B. abortus to antibiotic [2] | sensitivity of C. fetus to antibiotic ([1]; laboratory isolate [4914]) | detrimental effects on sperm (motility, viability, acrosomal integrity) [3] | detrimental effects on sperm (motility, viability, acrosomal integrity) [4] | detrimental effects of increasing the concentration [5]
1 | gentamicin | sensitive | sensitive | – | – | – | –
2 | CN[C@@H]1[C@H](O)[C@H](NC)[C@H]2O[C@@]3(O)C(=O)C[C@@H](C)O[C@H]3O[C@@H]2[C@H]1O [spectinomycin] | – | sensitive | intermediate | – | – | –
3 | CC[C@H]1OC(=O)C[C@@H](O)[C@H](C)[C@@H](O[C@@H]2O[C@H](C)[C@@H](O[C@H]3C[C@@](C)(O)[C@@H](O)[C@H](C)O3)[C@H](N(C)C)[C@H]2O)[C@@H](CC=O)C[C@@H](C)C(=O)/C=C/C(C)=C/[C@@H]1CO[C@@H]1O[C@H](C)[C@@H](O)[C@@H](OC)[C@H]1OC [tylosin] | – | intermediate | intermediate | – | – | –
4 | trypsin | – | – | – | no detrimental affects | no detrimental affects | no detrimental effects
5 | CCC[C@@H]1C[C@@H](C(=O)N[C@@H]([C@H]2O[C@H](SC)[C@H](O)[C@@H](O)[C@H]2O)[C@@H](C)O)N(C)C1 [lincomycin] | – | resistant | sensitive | – | – | –
